From ChEMBL document CHEMBL4033744, “Synthesis and biological evaluation of steroidal derivatives bearing a small ring as vitamin D receptor agonists” (Bioorg Med Chem Lett, 2017) come the findings set out here.

Usually pEC50 stands for −log10 of the EC50, conventionally taken in molar units.

Common to all, as to format: cell-based
Experiment [1] deals with T1, Vitamin D3 receptor (Homo sapiens) (UniProt P11473).
T1 sequence (whole entry): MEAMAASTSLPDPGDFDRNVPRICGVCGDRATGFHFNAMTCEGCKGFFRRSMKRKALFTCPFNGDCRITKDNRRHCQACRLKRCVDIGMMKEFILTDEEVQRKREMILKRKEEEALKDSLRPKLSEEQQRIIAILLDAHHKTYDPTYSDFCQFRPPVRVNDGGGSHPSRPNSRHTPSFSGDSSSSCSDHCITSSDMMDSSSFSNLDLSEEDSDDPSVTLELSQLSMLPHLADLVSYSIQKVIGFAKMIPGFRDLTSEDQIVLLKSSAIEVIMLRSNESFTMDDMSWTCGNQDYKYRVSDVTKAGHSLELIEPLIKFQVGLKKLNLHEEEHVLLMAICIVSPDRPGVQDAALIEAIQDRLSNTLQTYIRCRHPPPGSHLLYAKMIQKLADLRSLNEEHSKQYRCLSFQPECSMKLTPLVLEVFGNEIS
The experiment can be described thus: Agonist activity at vitamin D receptor (unknown origin) expressed in HEK293 cells co-expressing pCMX-RXRalpha and pCMX-beta-galactosidase assessed as induction of receptor transactivation incubated for 16 to 24 hrs by luciferase reporter gene assay relative to 3-keto-LCA. (In a reporter assay the amount or activity of a reporter protein is the signal.)

A further experiment addresses T2, Vitamin D3 receptor (Homo sapiens, UniProt P11473).
T2 sequence (P11473 whole entry): T1 sequence (whole entry)
Description: (§1) Agonist activity at vitamin D receptor (unknown origin) expressed in HEK293 cells co-expressing pCMX-RXRalpha and pCMX-beta-galactosidase assessed as induction of receptor transactivation incubated for 16 to 24 hrs by luciferase reporter gene assay.

Experiment [2] has as its target T1, Vitamin D3 receptor (Homo sapiens). The experiment is described as §1.

pEC50: −log10 of the molar value. Calls of active or inactive are those of the source. No cut-off for these calls is given here.

Consider `C[C@]12CCC(=O)C[C@H]1CC[C@@H]1[C@@H]2CC[C@@]2(C)[C@H]1CC[C@@]21C[C@@H]1CCC(=O)O`, for which, in experiment [1], the outcome was inactive.

`C[C@H](CCCC(C)(C)O)[C@H]1CC[C@H]2[C@@H]3CCc4cc(O)ccc4[C@H]3CC[C@]12C`: the negative-log EC50 (pEC50) at Vitamin D3 receptor was 6.07.

Consider `C[C@]12CCC(=O)C[C@H]1CC[C@@H]1[C@@H]2CC[C@@]2(C)[C@H]1C[C@H]1C[C@@H](CCC(=O)O)[C@]12O`, for which the result in experiment [1] was inactive.

As to `CC(C)(O)CCC[C@H]1C[C@@H]2C[C@H]3[C@@H]4CCc5cc(O)ccc5[C@H]4CC[C@]3(C)[C@@]21O`, the outcome in experiment [1] was Active.

With `C[C@]12CCC(=O)C[C@H]1CC[C@@H]1[C@@H]2CC[C@@]2(C)[C@H]1CC[C@@]21C[C@H]1CCC(=O)O`, the outcome in experiment [1] was inactive.

Take `CC(C)(O)CCC[C@H]1C[C@@]12CC[C@H]1[C@@H]3CCc4cc(O)ccc4[C@H]3CC[C@@]12C`: the outcome in experiment [1] was Active.

As for `C[C@]12CCC(=O)C[C@H]1CC[C@@H]1[C@@H]2CC[C@@]2(C)[C@H]1C[C@H]1C[C@H](CCC(=O)O)[C@]12O`, the outcome in experiment [1] was inactive.

Regarding `CC(C)(O)CCC[C@@H]1C[C@@]12CC[C@H]1[C@@H]3CCc4cc(O)ccc4[C@H]3CC[C@@]12C`, the outcome in experiment [1] was Active. Moreover, at Vitamin D3 receptor, the pEC50 is 5.43.

As to `CC(C)(O)CCC[C@@H]1C[C@@H]2C[C@H]3[C@@H]4CCc5cc(O)ccc5[C@H]4CC[C@]3(C)[C@]12O`, the outcome in experiment [1] was Active. For the same molecule, the pEC50 at Vitamin D3 receptor is 5.39.

With `C[C@H](CCC(=O)O)[C@H]1CC[C@H]2[C@@H]3CC[C@@H]4CC(=O)CC[C@]4(C)[C@H]3CC[C@]12C`, in experiment [2], the outcome was Active.
